In US12329160B2, “Activated ferrate compositions” (THE TEXAS A & M UNIVERSITY SYSTEM, priority 2018, dated 2025):

Columns and labels:
[1] = Elimination of six pharmaceuticals by Fe^VI—S2O3^2− in lake water (Lake Bryan); format: physicochemical; conditions: mixture 1.0 μM each, [S2O3^2−]:[Fe^VI] 0.125, Fe^VI 150.0 μM, pH 8.0, 30 seconds
Method: (§1) The contaminants are: carbamazepine (CMZ), diclofenac (DCF), enrofloxacin (ENR), propranolol (PPN), sulfadimethoxine (SMX), and trimethoprim (TMP). Experimental conditions: [Each contaminant]0 in mixture of samples=1.0 μM, [Fe^VI]0:[Total contaminants]=25:1, [S2O3^2−]0:[Fe^VI]0=0.125, [Fe^VI]0=150.0 μM, [S2O3^2−]0=18.75 μM, pH=8.00±0.05, reaction time=30 s).
(§2) The stock solutions of these contaminants (10.0 μM) were prepared in 10.0 mM Na2HPO4, and diluted using the same buffer solution before the removal experiments. […] Solutions of Fe^VI were prepared by adding K2FeO4 powders to 5.0 mM Na2HPO4/1.0 mM Na2B4O7.10H2O buffer solution. The concentrations of Fe^VI were quantitatively measured using an UV-visible spectrometer at a wavelength of 510 nm with a molar absorption coefficient of ε510 nm=1150 M^−1 cm^−1: The pH value of the contaminant solutions was adjusted to 7.50 via the addition of diluted H3PO4 before mixing with Fe^VI solution to achieve the desired reaction pH at 8.00±0.04. Methanol and phosphoric acid (85%) of high performance liquid chromatography (HPLC) grade were used in testing. 5,5-dimethyl-1-pyrroline-N-oxide (DMPO) was used as the spin trap reagent for identifying the possible reactive inorganic radicals (e.g., .OH and/or SO4.^−) in the oxidation system. All the other chemicals (e.g., hydroxylamine and permanganate) were provided from commercial sources and used without further purification. Two kinds of natural water samples were individually obtained from Brazos River (N 30°42′33″, E 96°28′5″, College Station, Texas) and Lake Bryan (N 30°33′30″, E 96°25′25″, Bryan, Texas). […] These real water samples were filtered through 0.45 μm hydrophilic PVDF membrane to remove the insoluble particles before spiking the contaminant mixtures (1.0 μM for each compound). 20.0 mM borate buffer was used to stabilize the solution pH of the real waters at 8.00±0.04. All the other solutions were prepared using the ultrapure water (resistivity >18 MΩ cm^−1).
(§3) Experiments were conducted in a series of 100 mL glass jars under constant stirring rate (400 rpm) with a magnetic stirrer. Oxidation of each contaminant or their mixtures by Fe^VI with or without S2O3^2− was initiated by mixing equal solution volumes of 10 mL, and the final reaction solutions were kept at 8.00±0.04. The concentration of Fe^VI was maintained at 100.0 μM, and the ratios of [S2O3^2−]:[Fe^VI] in the system were varied from 0 to 5.0 for aqueous removal of TMP (5.0 μM). […] After 30 seconds of oxidation, 20.0 μL NH2OH solution (1 M) was added to quench the reactions. Samples were transferred into high performance liquid chromatography (HPLC) vials, and were subsequently analyzed using the HPLC method. Similar experiments using TMP as a target contaminant were also performed by replacing Fe^VI with Mn^VII or chlorine under the same conditions. All experiments were carried out at room temperature, and were at least in triplicates.
For the chromatographic separation of six contaminant mixtures (CMZ, DCF, ENR, PPN, SMX, and TMP), a solvent gradient method was used with flow rate of 0.8 mL/min. This method started with 35% B (0-7.5 min), followed by 35% B to 55% B (7.5-10.5 min), 55% B to 70% B (10.5-15.5 min), 70% B to 90% B (15.5-18.5 min), 90% B (18.5-25.0 min), 90% B to 35% B (25.0-25.5 min) and post-equilibration at 35% B (25.5-33.0 min).

[2] = Elimination of six pharmaceuticals by Fe^VI—S2O3^2− in river water (Brazos River); format: physicochemical; conditions: mixture 1.0 μM each, [S2O3^2−]:[Fe^VI] 0.125, Fe^VI 150.0 μM, pH 8.0, 30 seconds
Method: as §1
The stock solutions of these contaminants (10.0 μM) were prepared in 10.0 mM Na2HPO4, and diluted using the same buffer solution before the removal experiments. Potassium ferrate (K2FeO4, purity >90%) was prepared using a wet chemical synthesis method. Solutions of Fe^VI were prepared by adding K2FeO4 powders to 5.0 mM Na2HPO4/1.0 mM Na2B4O7.10H2O buffer solution. The concentrations of Fe^VI were quantitatively measured using an UV-visible spectrometer at a wavelength of 510 nm with a molar absorption coefficient of ε510 nm=1150 M^−1 cm^−1: The pH value of the contaminant solutions was adjusted to 7.50 via the addition of diluted H3PO4 before mixing with Fe^VI solution to achieve the desired reaction pH at 8.00±0.04. […] No test contaminants were detected in these waters, and the basic physico-chemical parameters are pH, 8.36, UV254, 0.071 and UV400, 0.006 for river water; and pH, 9.43, UV254, 0.202, and UV400, 0.017 for lake water. […]

[3] = Oxidation of individual organic contaminants by Fe^VI with or without S2O3^2− in buffered ultrapure water, HPLC; format: physicochemical; conditions: for partial oxidation by Fe^VI without S2O3^2−: ratio 25:1 [Fe^VI]:[contaminants], Fe^VI 100.0 μM, pH 8.00, 30 seconds
Method: To test liquid ferrate solutions using second approach, batch experiments were conducted in a series of 100 mL glass jars under constant stirring rate (400 rpm) with a magnetic stirrer. Oxidation of each micropollutant or their mixtures by Fe^VI with or without S2O3^2− was initiated by mixing equal solution volumes of 10 mL, and the final reaction solutions were kept at 8.00±0.04.
as §2
as §3, with “conditions.” for “conditions. All experiments were carried out at room temperature, and were at least in triplicates.”

[4] = pH 8.0; cited from earlier work

| Compound | removal by Fe^VI—S2O3^2− in lake water [1] | removal by Fe^VI—S2O3^2− in river water [2] | partial oxidation by Fe^VI without S2O3^2− [3] [%] | oxidation of TMP by Fe^VI—S2O3^2− ([3]; molar ratio [S2O3^2−]:[Fe^VI] 0.125, TMP 5.0 μM, Fe(VI) 100.0 μM, pH 8.0, 30 seconds) [%] | elimination of TMP by Fe^VI—S2O3^2− ([3]; molar ratio [S2O3^2−]:[Fe^VI] 5.0, TMP 5.0 μM, Fe(VI) 100.0 μM, pH 8.0, 30 seconds) | oxidation of TMP by Fe^VI ([3]; without S2O3^2−, TMP 5.0 μM, Fe(VI) 100.0 μM, pH 8.0, quenched after 30 seconds, oxygenated) | k, reactivity of Fe^VI with DMSO [4] |
| --- | --- | --- | --- | --- | --- | --- | --- |
| NC(=O)N1c2ccccc2C=Cc2ccccc21 [CMZ, Carbamazepine] | about 50% | about 80% | 25.11 | – | – | – | – |
| O=C(O)Cc1ccccc1Nc1c(Cl)cccc1Cl [DCF, Diclofenac] | about 80% | – | 20.85 | – | – | – | – |
| CCN1CCN(c2cc3c(cc2F)c(=O)c(C(=O)O)cn3C2CC2)CC1 [ENR, Enrofloxacin] | about 50% | about 80% | 41.02 | – | – | – | – |
| CC(C)NCC(O)COc1cccc2ccccc12 (stereo not drawn) [PPN, Propranolol] | about 80% | – | 32.46 | – | – | – | – |
| COc1cc(NS(=O)(=O)c2ccc(N)cc2)nc(OC)n1 [SMX, Sulfadimethoxine] | about 80% | – | 47.27 | – | – | – | – |
| COc1cc(Cc2cnc(N)nc2N)cc(OC)c1OC [TMP, Trimethoprim] | about 80% | – | 22.04 | 100 | about 4% | about 16% | – |
| Potassium ferrate [Fe^VI] | – | – | – | – | – | – | about 1 M^−1 s^−1 |
